Test results from patent US20210267739A1, “DEVICES AND METHODS FOR CONTINUOUS DRUG DELIVERY VIA THE MOUTH” (SynAgile Corporation, priority 2013, published 2021).

Assays:
[1] = Vapor pressures of propellant liquids; format: physicochemical
Description: For propellant-driven pumps, it is preferred to use propellants whose pressure increases by less than about 80%, 60%, or 40% when the temperature is raised from 37° C. to 55° C. As examples, the pressure of Dupont Dymel HFC-134a (1,1,1,2-tetrafluoroethane) increases from 938 kPa (absolute) at 37° C. to 1,493 kPa (absolute) at 55° C., an increase of 59%. The pressure of Dupont Dymel HFC-227ea/P ([…]) increases from about 700 kPa (absolute) at 37° C. to 1,000 kPa (absolute) at 55° C., an increase of 42%. In order to minimize the effect of temperature fluctuations on the propellants, a number of methods can be employed. In one embodiment, an insulating material can be used to decrease the sensitivity to changes in ambient temperature by insulating the propellant and drug reservoirs with materials of low thermal conductivity. Materials such as closed cell neoprene foams, can be used in this embodiment. In another embodiment, a material with very low thermal conductivity can be utilized, such as a ceramic.

[2] = cited from earlier work; for Approximate Pressure, bars at 37° C.: vapor pressure of propellant liquid at 37° C.
[3] = in vivo; cited from earlier work
mouth of healthy subject [4] = format: in vivo
Description: The infusion was made into the cheek pouch of the lower left jaw, between the gum and the cheek. The pump infused the drug for 8 hours over a total period of 9 hours and 10 minutes.
The solution was infused using a Cane CronoPAR pump. […] The drug infusion was continuous, but was stopped during lunch for a period of 70 minutes. According to the manual, the Cane CronoPAR pump infuses the drug in boluses of 22 μL. […] Lodosyn tablets (25 mg carbidopa) were taken orally twice during the infusion period, for a total dose of 50 mg carbidopa.
The solution was infused in the cheek pouch of the lower right jaw, i.e., between the gum and the cheek.
(§1) The solution was infused using a Cane CronoPAR pump.
The infusion was made into the cheek pouch of the lower right jaw, between the gum and the cheek. The pump infused the drug for 5 hours and 45 minutes over a total period of 7 hours and 30 minutes.
The solution was infused using a Cane CronoPAR pump. […] Pump delivery was stopped during lunch for 1 hour 45 minutes for lunch. According to the manual, the Cane CronoPAR pump infuses the drug in boluses of 22 μL.
The same healthy subject infused into their mouth about 0.69 g LD and 0.07 g carbidopa, in 3.0 mL of 1.2M LD aqueous suspension, of unknown pH. The infusion was made into the cheek pouch of the lower right jaw, between the gum and the cheek. The pump infused the drug for 8 hours and 10 minutes over a total period of 9 hours and 5 minutes.
as §1

mouth of healthy subject [5] = test: Salivation and swallowing during intra-oral infusion; format: in vivo, human
Description: The subject recorded the number of times that they swallowed over two five minute periods. They swallowed 10 and 11 times during these two five minute periods, equal to an average rate of 2.1 swallows per minute. By contrast, in two other 5 minute periods when the subject was not infusing the drug, they swallowed 6 times and 5 times, equal to an average rate of 1.1 swallows per minute.
During two five-minute periods the subject recorded the number of times that they swallowed during the infusion. They swallowed 6 times during each of these two five minute periods, equal to an average rate of 1.2 swallows per minute. This is consistent with the previously measured rate of 1.1 swallows per minute observed when not infusing a drug and is half the 2.1 swallows per minute rate the subject observed when infusing LDEE.

Question: For `FCC(F)(F)F` [1,1,1,2 tetrafluoroethane], which “increase of pressure from 37° C. to 55° C.” value [1] is on record?
Answer: 59%

Question: What about the “pressure (absolute) at 37° C.” value [2] of the same compound?
Answer: 938 kPa

Question: And the “pressure (absolute) at 55° C.” value [2]?
Answer: 1,493 kPa

Question: What about the “Approximate Pressure, bars at 37° C.” value [2] of the same compound?
Answer: 9.3 bars

Question: Which “increase of pressure from 37° C. to 55° C.” value [1] does the source give for `FC(C(F)(F)F)C(F)(F)F` [1,1,1,2,3,3,3 heptafluoropropane] here?
Answer: 42%

Question: And the “pressure (absolute) at 37° C.” value [2]?
Answer: about 700 kPa

Question: What about the “pressure (absolute) at 55° C.” value [2] of the same compound?
Answer: 1,000 kPa

Question: And the “Approximate Pressure, bars at 37° C.” value [2]?
Answer: 4.6 bars

Question: For `FC(F)(F)CC(F)(F)F` [1,1,1,3,3,3 hexafluoropropane], which “Approximate Pressure, bars at 37° C.” value [2] is on record?
Answer: 4.0 bars

Question: For `CC(F)F` [1,1-difluoroethane], which “Approximate Pressure, bars at 37° C.” value [2] is on record?
Answer: 8.4 bars

Question: Which “Approximate Pressure, bars at 37° C.” value [2] does the source give for `FCCF` [1,2-difluoroethane] here?
Answer: 1.9 bars

Question: With `CCCCF` [1-fluorobutane] as the compound, how does the “Approximate Pressure, bars at 37° C.” value [2] read?
Answer: 1.3 bars

Question: For `CCCF` [1-fluoropropane], which “Approximate Pressure, bars at 37° C.” value [2] is on record?
Answer: 4.1 bars

Question: Which “Approximate Pressure, bars at 37° C.” value [2] does the source give for `CCC(C)F` (stereo not drawn) [2-fluorobutane] here?
Answer: 1.6 bars

Question: With `CC(C)F` [2-fluoropropane] as the compound, how does the “Approximate Pressure, bars at 37° C.” value [2] read?
Answer: 5 bars

Question: Which plasma half-life [3] does the source give for `CCN(CC)C(=O)/C(C#N)=C/c1cc(O)c(O)c([N+](=O)[O-])c1` [Entacapone] here?
Answer: 0.4 to 0.7 h

Question: For `C=CCC` [Example 1-butene, 1-butene], which “Approximate Pressure, bars at 37° C.” value [2] is on record?
Answer: 4.2 bars

Question: Which “Approximate Pressure, bars at 37° C.” value [2] does the source give for `CC=CC` [Example 2-butene, 2-butene] here?
Answer: 3.2 bars

Question: What does the source list for `CCOC(=O)[C@@H](N)Cc1ccc(O)c(O)c1` [LDEE, levodopa ethyl ester]?
Answer: condition of the mouth post-infusion (mouth of healthy subject [4]; 24 hours post-infusion): dead, grey, peeling skin; tooth hypersensitivity (mouth of healthy subject [4]; during or after infusion, healthy subject): hypersensitivity at the gum line of one tooth; time post-infusion at which the tissue appears normal (mouth of healthy subject [4]; healthy subject): 4 days; irritation or discomfort in the mouth during the infusion (mouth of healthy subject [4]; infusion into cheek pouch, healthy subject): no irritation or discomfort in the mouth; stimulation of salivation (mouth of healthy subject [5]; during infusion): stimulated in the subject salivation; average rate of swallowing during infusion (mouth of healthy subject [5]; two five minute periods): 2.1 swallows per minute

Question: Which plasma half-life [3] does the source give for `Cc1ccc(C(=O)c2cc(O)c(O)c([N+](=O)[O-])c2)cc1` [Tolcapone] here?
Answer: 2 to 3 h

Question: Which “Approximate Pressure, bars at 37° C.” value [2] does the source give for `CCCC` [butane] here?
Answer: 3.5 bars

Question: For `CCOCC` [diethyl ether], which “Approximate Pressure, bars at 37° C.” value [2] is on record?
Answer: 1.1 bars

Question: For `CCC(C)C` [isopentane], which “Approximate Pressure, bars at 37° C.” value [2] is on record?
Answer: 1.4 bars

Question: Which “Approximate Pressure, bars at 37° C.” value [2] does the source give for `CCOC` [methyl ethyl ether] here?
Answer: 3 bars

Question: For `CC(C)(C)C` [neopentane], which “Approximate Pressure, bars at 37° C.” value [2] is on record?
Answer: 2.4 bars

Question: For `FC1(F)C(F)(F)C(F)(F)C1(F)F` [octafluorocyclobutane], which “Approximate Pressure, bars at 37° C.” value [2] is on record?
Answer: 4.3 bars

Question: For `CCC` [propane], which “Approximate Pressure, bars at 37° C.” value [2] is on record?
Answer: 12.8 bars

Question: With `C=CC` [propene] as the compound, how does the “Approximate Pressure, bars at 37° C.” value [2] read?
Answer: 15.5 bars
